Assays:
P. falciparum = experiment: EC50 listed in S2 Table Metabolomics (used to set the concentration tested); type: cell-based; settings: Plasmodium falciparum; EC50 used for Factor_XEC50 in metabolomics; read-out: EC50_nM
[1] = test system: P. falciparum 3D7 trophozoites; experiment: Metabolomic fingerprint profiling LC-MS; type: cell-based, Plasmodium falciparum; design: UDP-D-glucose / ADP-D-glucose: unit not given here; settings: for Acetyllysine / N-acetyl-L-ornithine / N-carbamoyl-L-aspartate / NADPH / dAMP / dCMP / dTDP / dTMP / dTTP / dihydroorotate / orotate / DLH / DLS/SDL/SID / PD / PEE / PVNF / 3-phosphoglycerate / ADP-D-glucose / ATP / CDP / D-sedoheptulose-1/7-phosphate / FAD / GMP / NAD+ / NADP+ / Octoluse Bisphosphate / Pyroglutamic acid / UDP-D-glucose / UDP-D-glucuronate / UDP-N-acetyl-glucosamine / UDP / UMP / UTP / a-ketoglutarate / citrate/isocitrate / cytidine / dATP / dGMP/AMP / fumarate / glucose-1/6-phosphate / glycerate / guanine / guanosine / hypoxanthine / indole / inosine / nicotinate / ornithine / phosphoenolpyruvate / pyruvate / ribose-phosphate / sarcosine/alanine / sn-glycerol-3-phosphate / succinate/methylmalonic acid / uridine / xanthosine: S2 Table Metabolomics; for Acetyllysine: metabolite Acetyllysine; for N-acetyl-L-ornithine: metabolite N-acetyl-L-ornithine; for N-carbamoyl-L-aspartate: metabolite N-carbamoyl-L-aspartate; for NADPH: metabolite NADPH; for dAMP: metabolite dAMP; for dCMP: metabolite dCMP; for dTDP: metabolite dTDP; for dTMP: metabolite dTMP; for dTTP: metabolite dTTP; for dihydroorotate: metabolite dihydroorotate; for orotate: metabolite orotate; for DLH: peptide DLH; for DLS/SDL/SID: peptide DLS/SDL/SID; for PD: peptide PD; for PEE: peptide PEE; for PVNF: peptide PVNF; for 3-phosphoglycerate: metabolite 3-phosphoglycerate; for ADP-D-glucose: metabolite ADP-D-glucose; for ATP: metabolite ATP; for CDP: metabolite CDP; for CDP / D-sedoheptulose-1/7-phosphate / GMP / Octoluse Bisphosphate / UDP / UMP / UTP / citrate/isocitrate / dGMP/AMP / fumarate / glucose-1/6-phosphate / glycerate / guanine / guanosine / inosine / pyruvate / sarcosine/alanine / succinate/methylmalonic acid / uridine / xanthosine: change in metabolite level after compound treatment; for D-sedoheptulose-1/7-phosphate: metabolite D-sedoheptulose-1/7-phosphate; for FAD: metabolite FAD; for GMP: metabolite GMP; for NAD+: metabolite NAD+; for NADP+: metabolite NADP+; for Octoluse Bisphosphate: metabolite Octoluse Bisphosphate; for Pyroglutamic acid: metabolite Pyroglutamic acid; for UDP-D-glucose: metabolite UDP-D-glucose; for UDP-D-glucuronate: metabolite UDP-D-glucuronate; for UDP-N-acetyl-glucosamine: metabolite UDP-N-acetyl-glucosamine; for UDP: metabolite UDP; for UMP: metabolite UMP; for UTP: metabolite UTP; for a-ketoglutarate: metabolite a-ketoglutarate; for citrate/isocitrate: metabolite citrate/isocitrate; for cytidine: metabolite cytidine; for dATP: metabolite dATP; for dGMP/AMP: metabolite dGMP/AMP; for fumarate: metabolite fumarate; for glucose-1/6-phosphate: metabolite glucose-1/6-phosphate; for glycerate: metabolite glycerate; for guanine: metabolite guanine; for guanosine: metabolite guanosine; for hypoxanthine: metabolite hypoxanthine; for indole: metabolite indole; for inosine: metabolite inosine; for 2_3-Diphosphoglyceric acid / 4-phosphopantothenate / 6-phospho-D-gluconate / FMN / IMP / Pyrophosphate / Sedoheptoluse bisphosphate / cyclic-AMP / glutathione disulfide / lactate / myo-inositol: metabolite level change after treatment; for nicotinate: metabolite nicotinate; for ornithine: metabolite ornithine; for phosphoenolpyruvate: metabolite phosphoenolpyruvate; for pyruvate: metabolite pyruvate; for ribose-phosphate: metabolite ribose-phosphate; for sarcosine/alanine: metabolite sarcosine/alanine; for sn-glycerol-3-phosphate: metabolite sn-glycerol-3-phosphate; for succinate/methylmalonic acid: metabolite succinate/methylmalonic acid; for uridine: metabolite uridine; for xanthosine: metabolite xanthosine

Cc1ccc(N2C3c4ccccc4N(S(=O)(=O)c4ccc(C)cc4)C2c2ccccc2N3S(=O)(=O)c2ccc(C)cc2)cc1 [MMV007160]
EC50 (P. falciparum): 24.8 nM | Acetyllysine [1]: 0.3548 | N-acetyl-L-ornithine [1]: 0.3325 | N-carbamoyl-L-aspartate [1]: 1.35 | NADPH [1]: 0.1135 | dAMP [1]: 0.01944 | dCMP [1]: 0.09265 | dTDP [1]: 0.2488 | dTMP [1]: 0.1305 | dTTP [1]: 0.2593 | dihydroorotate [1]: 1.082 | orotate [1]: 0.8469 | DLH [1]: 0.1334 | DLS/SDL/SID [1]: 0.2278 | PD [1]: -0.1641 | PEE [1]: -0.1118 | PVNF [1]: 0.2167 | 3-phosphoglycerate [1]: 0.1652 | ADP-D-glucose [1]: -0.01319 | ATP [1]: 0.3343 | CDP [1]: 0.1565 | D-sedoheptulose-1/7-phosphate [1]: 0.1973 | FAD [1]: -0.002001 | GMP [1]: 0.2649 | NAD+ [1]: 0 | NADP+ [1]: 0.07922 | Octoluse Bisphosphate [1]: 0.295 | Pyroglutamic acid [1]: 0.3777 | UDP-D-glucose [1]: 0.05012 | UDP-D-glucuronate [1]: 0.1524 | UDP-N-acetyl-glucosamine [1]: -0.001304 | UDP [1]: 0.1082 | UMP [1]: 0.008735 | UTP [1]: 0.1487 | a-ketoglutarate [1]: 0.5892 | citrate/isocitrate [1]: 0.4078 | cytidine [1]: 0.08232 | dATP [1]: 0.1879 | dGMP/AMP [1]: 0.0905 | fumarate [1]: 0.3202 | glucose-1/6-phosphate [1]: 0.8192 | glycerate [1]: 0.7953 | guanine [1]: 0.3293 | guanosine [1]: 0.8873 | hypoxanthine [1]: 0.7164 | indole [1]: 0.6321 | inosine [1]: 0.395 | 2_3-Diphosphoglyceric acid [1]: 0.1996 | 4-phosphopantothenate [1]: 0.1099 | 6-phospho-D-gluconate [1]: 0.1949 | FMN [1]: 0.06109 | IMP [1]: -0.03231 | Pyrophosphate [1]: 0.1406 | Sedoheptoluse bisphosphate [1]: 0.1591 | cyclic-AMP [1]: 0.1479 | glutathione disulfide [1]: 0.15 | lactate [1]: 0.5915 | myo-inositol [1]: 0.754 | nicotinate [1]: 0.5248 | ornithine [1]: 0.05899 | phosphoenolpyruvate [1]: 0.1975 | pyruvate [1]: -0.02541 | ribose-phosphate [1]: -0.3937 | sarcosine/alanine [1]: 0.2516 | sn-glycerol-3-phosphate [1]: -0.6224 | succinate/methylmalonic acid [1]: 0.03261 | uridine [1]: 0.5939 | xanthosine [1]: 0.5985

Cc1ccc(-c2cc3c(nn2)-c2ccccc2C3=O)cc1 [MMV666021]
EC50 (P. falciparum): 94.4 nM | Acetyllysine [1]: -0.3916 | N-acetyl-L-ornithine [1]: -0.1425 | N-carbamoyl-L-aspartate [1]: 3.794 | NADPH [1]: 1.165 | dAMP [1]: -0.6653 | dCMP [1]: -0.7362 | dTDP [1]: -1.533 | dTMP [1]: -1.5256 | dTTP [1]: -1.181 | dihydroorotate [1]: 4.247 | orotate [1]: -2.195 | DLH [1]: 0.5354 | DLS/SDL/SID [1]: 0.5895 | PD [1]: 0.02372 | PEE [1]: 0.1996 | PVNF [1]: 0.3334 | 3-phosphoglycerate [1]: 0.4336 | ADP-D-glucose [1]: 0.0706 | ATP [1]: 0.08889 | CDP [1]: -1.433 | D-sedoheptulose-1/7-phosphate [1]: -0.7013 | FAD [1]: 0.04196 | GMP [1]: 1.198 | NAD+ [1]: -0.07934 | NADP+ [1]: 0.07896 | Octoluse Bisphosphate [1]: 0.0421 | Pyroglutamic acid [1]: -0.4992 | UDP-D-glucose [1]: 0.003691 | UDP-D-glucuronate [1]: -0.1073 | UDP-N-acetyl-glucosamine [1]: -0.2024 | UDP [1]: -2.005 | UMP [1]: -0.6482 | UTP [1]: -1.713 | a-ketoglutarate [1]: -0.6601 | citrate/isocitrate [1]: -2.126 | cytidine [1]: 0.5518 | dATP [1]: 0.3766 | dGMP/AMP [1]: -0.5358 | fumarate [1]: 0.2361 | glucose-1/6-phosphate [1]: 0.01993 | glycerate [1]: -1.131 | guanine [1]: -0.835 | guanosine [1]: -1.803 | hypoxanthine [1]: -0.06084 | indole [1]: -0.09156 | inosine [1]: -0.5269 | 2_3-Diphosphoglyceric acid [1]: -0.1865 | 4-phosphopantothenate [1]: -0.7776 | 6-phospho-D-gluconate [1]: 0.009051 | FMN [1]: 0.04698 | IMP [1]: -0.1163 | Pyrophosphate [1]: -0.09516 | Sedoheptoluse bisphosphate [1]: -0.2318 | cyclic-AMP [1]: -0.2358 | glutathione disulfide [1]: -0.3199 | lactate [1]: -0.9153 | myo-inositol [1]: -1.23 | nicotinate [1]: -1.397 | ornithine [1]: 0.08018 | phosphoenolpyruvate [1]: 0.1844 | pyruvate [1]: -1.786 | ribose-phosphate [1]: 0.5392 | sarcosine/alanine [1]: -0.3874 | sn-glycerol-3-phosphate [1]: 0.4697 | succinate/methylmalonic acid [1]: -0.7859 | uridine [1]: -1.3045 | xanthosine [1]: -0.5693

O=C(CSc1nccn2nc(-c3ccccc3)cc12)Nc1cc(C(F)(F)F)ccc1Cl [MMV396678]
Acetyllysine [1]: -0.4877 | N-acetyl-L-ornithine [1]: -0.4938 | N-carbamoyl-L-aspartate [1]: 3.602 | NADPH [1]: -0.3509 | dAMP [1]: -2.425 | dCMP [1]: -0.1067 | dTDP [1]: -0.8621 | dTMP [1]: -0.7966 | dTTP [1]: -1.266 | dihydroorotate [1]: 4.597 | orotate [1]: 0.259 | DLH [1]: -0.3174 | DLS/SDL/SID [1]: -0.3424 | PD [1]: -0.07917 | PEE [1]: -0.441 | PVNF [1]: -2.237 | 3-phosphoglycerate [1]: -0.1451 | ADP-D-glucose [1]: -0.07756 | ATP [1]: 0.1007 | CDP [1]: -0.7494 | D-sedoheptulose-1/7-phosphate [1]: -0.4438 | FAD [1]: -0.03171 | GMP [1]: 0.3554 | NAD+ [1]: 0.01671 | NADP+ [1]: -0.09002 | Octoluse Bisphosphate [1]: -0.2508 | Pyroglutamic acid [1]: 0.3744 | UDP-D-glucose [1]: -0.1169 | UDP-D-glucuronate [1]: -0.3093 | UDP-N-acetyl-glucosamine [1]: -0.3205 | UDP [1]: -0.9356 | UMP [1]: -0.7589 | UTP [1]: -1.3566 | a-ketoglutarate [1]: 0.2592 | citrate/isocitrate [1]: 0.4562 | cytidine [1]: 0.4629 | dATP [1]: 0.2611 | dGMP/AMP [1]: -0.1351 | fumarate [1]: 0.07736 | glucose-1/6-phosphate [1]: 0.1714 | glycerate [1]: 0.291 | guanine [1]: 0.4817 | guanosine [1]: 0.7569 | hypoxanthine [1]: 0.5204 | indole [1]: 0.3835 | inosine [1]: 0.4193 | 2_3-Diphosphoglyceric acid [1]: -0.1645 | 4-phosphopantothenate [1]: -0.3586 | 6-phospho-D-gluconate [1]: -0.1209 | FMN [1]: -0.2869 | IMP [1]: 0.1606 | Pyrophosphate [1]: -0.1573 | Sedoheptoluse bisphosphate [1]: -0.2556 | cyclic-AMP [1]: -0.1203 | glutathione disulfide [1]: -0.08653 | lactate [1]: 0.1751 | myo-inositol [1]: -0.2117 | nicotinate [1]: 0.4349 | ornithine [1]: 0.266 | phosphoenolpyruvate [1]: 0.01446 | pyruvate [1]: 0.3754 | ribose-phosphate [1]: -0.04013 | sarcosine/alanine [1]: -0.09301 | sn-glycerol-3-phosphate [1]: -0.3771 | succinate/methylmalonic acid [1]: 0.03069 | uridine [1]: 0.1532 | xanthosine [1]: 0.489

— publication PMC4965013, “Open Source Drug Discovery with the Malaria Box Compound Collection for Neglected Diseases and Beyond” (PLoS Pathogens, 2016)
